Tested on: icSARS-CoV-2-GFP
Assay type: cell-based, SARS-CoV-2

Question: Which results are given for trypsin?
Answer: syncytium formation: did not trigger syncytium formation; virus titers relative to controls: slightly lower virus titers than controls
